Experimental data reported in patent US7098340B2, “Benzyl sulfonamide derivatives” (Warner Lambert Company LLC, priority 2003, dated 2006).

biological target: T1, androgen receptor (Homo sapiens, UniProt P10275); experiment: AR Antagonist Cell Assay (MMTV-luciferase reporter, DHT-stimulated); type: cell-based; conditions: MDA-MB453-MMTV clone 54-19 cells; antagonism of 100 pM DHT, 17 hr, luciferase readout
T1 sequence (P10275 1-920 Q868H): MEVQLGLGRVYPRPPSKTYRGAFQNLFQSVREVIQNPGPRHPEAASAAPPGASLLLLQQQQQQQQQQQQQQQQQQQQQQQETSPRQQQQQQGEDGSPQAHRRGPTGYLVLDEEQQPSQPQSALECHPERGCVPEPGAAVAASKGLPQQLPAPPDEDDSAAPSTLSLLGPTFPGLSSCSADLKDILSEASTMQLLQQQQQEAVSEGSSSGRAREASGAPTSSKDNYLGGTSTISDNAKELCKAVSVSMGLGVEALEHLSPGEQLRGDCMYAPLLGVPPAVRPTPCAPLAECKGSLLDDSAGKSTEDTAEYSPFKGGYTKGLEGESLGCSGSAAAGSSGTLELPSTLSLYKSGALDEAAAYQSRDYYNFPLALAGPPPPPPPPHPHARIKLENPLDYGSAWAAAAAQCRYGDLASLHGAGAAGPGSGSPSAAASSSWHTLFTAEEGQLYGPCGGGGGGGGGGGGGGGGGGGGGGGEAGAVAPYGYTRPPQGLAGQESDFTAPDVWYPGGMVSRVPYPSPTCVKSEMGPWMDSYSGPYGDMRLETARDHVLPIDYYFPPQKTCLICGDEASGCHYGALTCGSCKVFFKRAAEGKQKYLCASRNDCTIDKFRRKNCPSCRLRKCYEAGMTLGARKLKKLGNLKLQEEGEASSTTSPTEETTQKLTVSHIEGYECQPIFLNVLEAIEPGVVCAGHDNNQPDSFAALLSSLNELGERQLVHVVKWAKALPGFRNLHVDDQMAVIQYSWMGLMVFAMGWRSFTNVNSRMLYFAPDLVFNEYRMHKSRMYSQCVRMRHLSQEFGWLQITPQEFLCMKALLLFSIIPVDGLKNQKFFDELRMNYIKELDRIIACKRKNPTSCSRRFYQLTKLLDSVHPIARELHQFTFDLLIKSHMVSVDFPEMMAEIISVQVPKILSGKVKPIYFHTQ
Method in brief: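 MDA-MB453 cells stably carrying MMTV-ARE-firefly luciferase, in 1% charcoal-treated serum, preincubated 30 min with compound (10 uM or 1 uM) then stimulated with 100 pM DHT for 17 h at 37° C. Luminescence read; result as % inhibition of DHT fold induction.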

Row | SMILES | IC50
1 | O=c1cc(C(F)(F)F)c2cc(Cc3ccc(S(=O)(=O)NCCc4ccc(Cl)cc4)cc3)ccc2[nH]1 [Example 74, N-[2-(4-Chlorophenyl)ethyl]-4-(2-oxo-4-trifluoromethyl-1,2-dihydroquinolin-6-ylmethyl)-benzenesulfonamide] | > 10 µM
2 | O=c1cc(C(F)(F)F)c2cc(Cc3ccc(S(=O)(=O)NCc4cccc(Cl)c4F)cc3)ccc2[nH]1 [Example 77, N-(3-Chloro-2-fluorobenzyl)-4-(2-oxo-4-trifluoromethyl-1,2-dihydroquinolin-6-ylmethyl)-benzenesulfonamide] | > 10 µM
3 | O=c1cc(C(F)(F)F)c2cc(Cc3ccc(S(=O)(=O)NCc4c(F)cccc4Cl)cc3)ccc2[nH]1 [Example 78, N-(2-Chloro-6-fluorobenzyl)-4-(2-oxo-4-trifluoromethyl-1,2-dihydroquinolin-6-ylmethyl)-benzenesulfonamide] | > 10 µM
4 | COc1cc(CNS(=O)(=O)c2ccc(Cc3ccc4[nH]c(=O)cc(C(F)(F)F)c4c3)cc2)cc(OC)c1 [Example 80, N-(3,5-Dimethoxybenzyl)-4-(2-oxo-4-trifluoromethyl-1,2-dihydroquinolin-6-ylmethyl)-benzenesulfonamide] | > 10 µM
5 | Cc1ccc(F)c(CNS(=O)(=O)c2ccc(Cc3ccc4[nH]c(=O)cc(C(F)(F)F)c4c3)cc2)c1Cl [Example 84, N-(2-Chloro-6-fluoro-3-methylbenzyl)-4-(2-oxo-4-trifluoromethyl-1,2-dihydroquinolin-6-ylmethyl)-benzenesulfonamide] | > 10 µM
6 | O=c1cc(C(F)(F)F)c2cc(Cc3ccc(S(=O)(=O)NCc4c(F)ccc(F)c4Cl)cc3)ccc2[nH]1 [Example 87, N-(2-Chloro-3,6-difluorobenzyl)-4-(2-oxo-4-trifluoromethyl-1,2-dihydroquinolin-6-ylmethyl)-benzenesulfonamide] | > 10 µM
7 | O=c1cc(C(F)(F)F)c2cc(Cc3ccc(S(=O)(=O)NCc4cc(C(F)(F)F)ccc4F)cc3)ccc2[nH]1 [Example 90, N-(2-Fluoro-5-trifluoromethylbenzyl)-4-(2-oxo-4-trifluoromethyl-1,2-dihydroquinolin-6-ylmethyl)-benzenesutfonamide] | 2.62 µM
8 | CCOC(=O)CC(NS(=O)(=O)c1ccc(Cc2ccc3[nH]c(=O)cc(C(F)(F)F)c3c2)cc1)c1ccccc1 (centres unmarked) [Example 91, 3-[4-(2-Oxo-4-trifiuoromethyl-1,2-dihydroquinolin-6-ylmethyl)-benzenesulfonylamino]-3-phenylpropionic acid ethyl ester] | > 10 µM
9 | O=c1cc(C(F)(F)F)c2cc(Cc3ccc(S(=O)(=O)NCC(c4ccccc4)c4ccccc4)cc3)ccc2[nH]1 [Example 92, N-(2,2-Diphenylethyl)-4-(2-oxo-4-trifluoromethyl-1,2-dihydroquinolin-6-ylmethyl)-benzenesulfonamide] | 2.71 µM
10 | O=c1cc(C(F)(F)F)c2cc(Cc3ccc(S(=O)(=O)N[C@H]4CCCC[C@H]4OCc4ccccc4)cc3)ccc2[nH]1 [Example 93, N-(2-Benzyloxycyclohexyl)-4-(2-oxo-4-trifluoromethyl-1,2-dihydroquinolin-6-ylmethyl)-benzenesulfonamide] | > 10 µM
11 | O=c1cc(C(F)(F)F)c2cc(Cc3ccc(S(=O)(=O)N(CCO)C4CCCCC4)cc3)ccc2o1 [Example 95, N-Cyclohexyl-N-(2-hydroxyethyl)-4-(2-oxo-4-trifluoromethyl-2H-chromen-6-ylmethyl)benzenesulfonamide] | 1.03 µM
12 | CCCCN(CCCC)S(=O)(=O)c1ccc(Cc2ccc3oc(=O)cc(C(F)(F)F)c3c2)cc1 [Example 97, N,N-Dibutyl-4-(2-oxo-4-trifluoromethyl-2H-chromen-6-ylmethyl)benzenesulfonamide] | 6.23 µM
13 | CCCCN(CC)S(=O)(=O)c1ccc(Cc2ccc3oc(=O)cc(C(F)(F)F)c3c2)cc1 [Example 99, N-Butyl-N-ethyl-4-(2-oxo-4-trifluoromethyl-2H-chromen-6-ylmethyl)benzenesulfonamide] | 4.15 µM
14 | O=c1cc(C(F)(F)F)c2cc(Cc3ccc(S(=O)(=O)N(CCO)Cc4ccccc4)cc3)ccc2o1 [Example 103, N-Benzyl-N-(2-hydroxyethyl)-4-(2-oxo-4-trifluoromethyl-2H-chromen-6-ylmethyl)-benzenesulfonamide] | ~10 µM

Second part, the compound after the results:

Row | IC50 | SMILES
15 | > 10 µM | CSc1ccccc1CNS(=O)(=O)c1ccc(Cc2ccc3[nH]c(=O)cc(C(F)(F)F)c3c2)cc1 [Example 73, N-(2-Methylsulfanylbenzyl)-4-(2-oxo-4-trifluoromethyl-1,2-dihydroquinolin-6-ylmethyl)-benzenesulfonamide]
16 | 6.7 µM | CN1CCN(CCCNS(=O)(=O)c2ccc(Cc3ccc4[nH]c(=O)cc(C(F)(F)F)c4c3)cc2)CC1 [Example 75, N-[3-(4-Methylpiperazin-1-yl)propyl]-4-(2-oxo-4-trifluoromethyl-1,2-dihydroquinolin-6-ylmethyl)-benzenesulfonamide]
17 | > 10 µM | O=c1cc(C(F)(F)F)c2cc(Cc3ccc(S(=O)(=O)NCc4cc(Cl)ccc4F)cc3)ccc2[nH]1 [Example 76, N-(5-Chloro-2-fluorobenzyl)-4-(2-oxo-4-trifluoromethyl-1,2-dihydroquinolin-6-ylmethyl)-benzenesulfonamide]
18 | 10.3 µM | O=c1cc(C(F)(F)F)c2cc(Cc3ccc(S(=O)(=O)NCCc4c[nH]c5ccccc45)cc3)ccc2[nH]1 [Example 79, N-[2-(1H-Indol-3-yl)ethyl]-4-(2-oxo-4-trifluoromethyl-1,2-dihydroquinolin-6-ylmethyl)-benzenesulfonamide]
19 | > 10 µM | CC(C)(C)SCCNS(=O)(=O)c1ccc(Cc2ccc3[nH]c(=O)cc(C(F)(F)F)c3c2)cc1 [Example 82, N-(2-tert-Butylsulfanylethyl)-4-(2-oxo-4-trifluoromethyl-1,2-dihydroquinolin-6-ylmethyl)-benzenesulfonamide]
20 | > 10 µM | O=c1cc(C(F)(F)F)c2cc(Cc3ccc(S(=O)(=O)NCc4ccccc4OC(F)F)cc3)ccc2[nH]1 [Example 83, N-(2-Difluoromethoxybenzyl)-4-(2-oxo-4-trifluoromethyl-1,2-dihydroquinolin-6-ylmethyl)-benzenesulfonamide]
21 | ~10 µM | O=c1cc(C(F)(F)F)c2cc(Cc3ccc(S(=O)(=O)NCc4ccc(Cl)cc4Cl)cc3)ccc2[nH]1 [Example 85, N-(2,4-Dichlorobenzyl)-4-(2-oxo-4-trifluoromethyl-1,2-dihydroquinolin-6-ylmethyl)-benzenesulfonamide]
22 | 2.28 µM | O=c1cc(C(F)(F)F)c2cc(Cc3ccc(S(=O)(=O)NC4CCN(Cc5ccccc5)C4)cc3)ccc2[nH]1 (centres unmarked) [Example 86]
23 | > 10 µM | CCOC(=O)C(NS(=O)(=O)c1ccc(Cc2ccc3[nH]c(=O)cc(C(F)(F)F)c3c2)cc1)c1ccccc1 (centres unmarked) [Example 89, [4-(2-Oxo-4-trifluoromethyl-1,2-dihydroquinolin-6-ylmethyl)-benzenesulfonylamino]-phenylacetic acid ethyl ester]
24 | > 10 µM | O=c1cc(C(F)(F)F)c2cc(Cc3ccc(S(=O)(=O)NCc4ccccc4Sc4ccccc4CO)cc3)ccc2[nH]1 [Example 94, N-[2-(2-Hydroxymethyl-phenylsulfanyl)benzyl]-4-(2-oxo-4-trifluoromethyl-1,2-dihydroquinolin-6-ylmethyl)-benzenesulfonamide]
25 | > 10 µM | CN1CCC(N(C)S(=O)(=O)c2ccc(Cc3ccc4oc(=O)cc(C(F)(F)F)c4c3)cc2)CC1 [Example 96, N-Methyl-N-(1-methylpipendin-4-yl)-4-(2-oxo-4-trifluoromethyl-2H-chromen-6-ylmethyl)-benzenesulfonamide]
26 | 2.43 µM | CCN(Cc1ccncc1)S(=O)(=O)c1ccc(Cc2ccc3oc(=O)cc(C(F)(F)F)c3c2)cc1 [Example 98, N-Ethyl-4-(2-oxo-4-trifluoromethyl-2H-chromen-6-ylmethyl)-N-pyridin-4-ylmethyl-benzenesulfonamide]
27 | ~10 µM | CCCCN(CCO)S(=O)(=O)c1ccc(Cc2ccc3oc(=O)cc(C(F)(F)F)c3c2)cc1 [Example 100, N-Butyl-N-(2-hydroxyethyl)-4-(2-oxo-4-trifluoromethyl-2H-chromen-6-ylmethyl)-benzenesulfonamide]
28 | 2.65 µM | CC(C)N(C)S(=O)(=O)c1ccc(Cc2ccc3oc(=O)cc(C(F)(F)F)c3c2)cc1 [Example 101, N-Isopropyl-N-methyl-4-(2-oxo-4-trifluoromethyl-2H-chromen-6-ylmethyl)-benzenesulfonamide]
29 | 2.91 µM | CCCN(CCO)S(=O)(=O)c1ccc(Cc2ccc3oc(=O)cc(C(F)(F)F)c3c2)cc1 [Example 102, N-(2-Hydroxyethyl)-4-(2-oxo-4-trifluoromethyl-2H-chromen-6-ylmethyl)-N-propylbenzenesulfonamide]
